Source: paper PMC8646019, “Azvudine is a thymus-homing anti-SARS-CoV-2 drug effective in treating COVID-19 patients” (Signal Transduction and Targeted Therapy, 2021)
Like-named read-outs stand apart in the source and are kept apart here.

Tests used:
[1] = Biodistribution and metabolism of remdesivir in rats (UHPLC-MS/MS); assay type: in vivo, Sprague-Dawley rats; settings: rat; for Concentration in PBMCs / Concentration in brain / Concentration in epididymis / Concentration in heart / Concentration in liver / Concentration in lung / concentration at 2 h / concentration at 6 h: GS-5734 100 mg/kg i.p.; for Concentration in PBMCs / Concentration in brain / Concentration in epididymis / Concentration in heart / Concentration in liver / Concentration in lung: average n=5; for concentration at 2 h / concentration at 6 h: male, Sprague-Dawley, in vivo, 100 mg/kg
Description: 10 male Sprague-Dawley rats (250 ± 25 g) were purchased from Vital River Laboratories Co., LTD (Beijng, China). The rats were divided randomly into two groups with five rats in each, and were administered with GS-5734 at a single dose of 100 mg/kg, i.p. At the time point of 2h and 6h after drug administration, rats in one group were dissected with euthanization and blood samples as well as heart, liver, spleen, lung, kidney, brain, thymus, testis, and epididymis were collected for UHPLC-MS/MS analysis as mentioned above.
The analysis method was like that for FNC expect that the flow rate was set at 0.4 mL/min and the gradient elution was employed using the following program: 0-1.5min, 100-65%B; 1.5-4min, 65-60%B; 4-5min, 60-56%B. Multiple-reaction monitoring (MRM) mode was performed using the characteristic precursor to product ion transitions (Supplementary Table 4b).
The standard curves of blank kidney tissue matrix, plasma matrix and PBMCs matrix were applied for quantitative analysis of GS-5734 and its metabolites. GS-5734, Nuc, Nuc-MP and Nuc-TP were quantified using their own standard curves, and the metabolites of GS-5734 (Ala-Nuc and Nuc-DP) were quantified using Nuc-MP standard curves.
Figure. S4. […] 10 male Sprague-Dawley rats were administered with GS-5734 at a single dose of 100 mg/kg, i.p. At the time point of 2 h and 6 h after drug administration, five rats were dissected. The blood samples as well as heart, liver, spleen, lung, kidney, brain, thymus, testis, and epididymis were collected for UHPLC-MS/MS analysis performed on a UHPLC system (1290 series, Agilent Technologies, US) coupled to a triple quadrupole mass spectrometer (Agilent 6470 QQQ). a.

HCoV-OC43 = assay: Anti-HCoV-OC43 assay in H460 cells (CPE, Western blot, immunofluorescence); assay type: cell-based
SARS-CoV-2 [2] = assay: Anti-SARS-CoV-2 assay in Calu-3 cells (qRT-PCR); assay type: cell-based
[3] = Cytotoxicity in Calu-3 cells (Cell Titer 96 Aqueous one Solution Cell Proliferation Assay); assay type: cell-based; settings: human, Calu-3, 48 h
Description: (§1) The cytotoxicity of the tested drugs in Vero E6 or Calu-3 Cells were determined by Cell Titer 96® Aqueous one Solution Cell Proliferation Assay (Promega, US). To evaluate the antiviral efficacy of the drugs, Vero E6 or Calu-3 cells were cultured overnight in 96-well plate with a density of 4 ×10^4 cells/well. Cells were pre-treated with the different doses of the indicated antivirals for 1 h. Viruses (MOI=0.05) were subsequently added to cells, followed by 1 h incubation. Then, the virus-drug mixture was removed and cells were further cultured with fresh drug-containing medium. At 48 h post infection (pi), the culture supernatant was collected and lysed in Trizol (Thermo, Cat no. 15596018) for further analysis. Remdesivir was tested as reference.

SARS-CoV-2 [4] = assay: Anti-SARS-CoV-2 assay in Vero E6 cells (qRT-PCR of viral RNA copies, CPE); assay type: cell-based
[5] = test system: SARS-CoV-2 and HCoV-OC43 coronavirus; assay: Anti-coronavirus activity in vitro, summary over viruses and cells; assay type: cell-based; settings: depending on viruses or cells
[6] = Cytotoxicity in Vero E6 cells (Cell Titer 96 Aqueous one Solution Cell Proliferation Assay); assay type: cell-based; settings: African green monkey, Vero E6, 48 h
Description: as §1

Compound: C[C@H](NP(=O)(O)OC[C@H]1O[C@@](C#N)(c2ccc3c(N)ncnn23)[C@H](O)[C@@H]1O)C(=O)O [Ala-Nuc]
- Concentration in PBMCs ([1]; 2 h): 0.55 ng/10^6 cells
- Concentration in brain ([1]; 2 h): 24.16 ng/g tissue
- Concentration in epididymis ([1]; 2 h): 24.05 ng/g tissue
- Concentration in heart ([1]; 2 h): 3908.49 ng/g tissue
- Concentration in liver ([1]; 2 h): 1304.94 ng/g tissue
- Concentration in lung ([1]; 2 h): 82.87 ng/g tissue
- Concentration in PBMCs ([1]; 6 h): 0.50 ng/10^6 cells
- Concentration in brain ([1]; 6 h): 38.27 ng/g tissue
- Concentration in epididymis ([1]; 6 h): 48.37 ng/g tissue
- Concentration in heart ([1]; 6 h): 5730.68 ng/g tissue
- Concentration in liver ([1]; 6 h): 416.97 ng/g tissue
- Concentration in lung ([1]; 6 h): 73.42 ng/g tissue

Compound: CC(C)OC(=O)[C@H](C)N[P@](=O)(OC[C@@]1(N=[N+]=[N-])O[C@@H](n2ccc(N)nc2=O)[C@@H](F)[C@@H]1O)Oc1ccccc1 [CL-236]
- EC50 (HCoV-OC43; Betacoronavirus 1, OC43, NCI-H460, evaluated by CPE, read-out: EC50, HCoV-OC43 infection): 1.2 µM
- HCoV-OC43 N protein expression (HCoV-OC43; Western blot, 48 h): decrease in N protein expression
- SI (HCoV-OC43; evaluated by CPE): 20
- selectivity index (SI) (SARS-CoV-2 [2]; Calu-3): 83
- EC50 (SARS-CoV-2 [2]; Severe acute respiratory syndrome coronavirus 2, Calu-3, MOI 0.05, qRT-PCR, 48 h, read-out: EC50, SARS-CoV-2 RNA replication): 1.2 µM
- CC50 at 48 h [3]: > 102 µM
- EC50 (SARS-CoV-2 [4]; Severe acute respiratory syndrome coronavirus 2, Vero C1008, 48 h, Vero E6, MOI 0.05, qRT-PCR, 48 h, read-out: EC50, SARS-CoV-2 RNA replication): 4.31 µM
- selectivity index (SI) (SARS-CoV-2 [4]; Vero E6): 15.35
- cytopathic effect (CPE) of SARS-CoV-2 (SARS-CoV-2 [4]; Vero E6, 48 h): protected the cells from SARS-CoV-2-caused cell death
- EC50 [5]: 1.2 to 4.3 µM
- selective index (SI) [5]: 15–83
- CC50 at 48 h [6]: 66.2 µM

Compound: N#C[C@@]1(c2ccc3c(N)ncnn23)O[C@H](COP(=O)(O)OP(=O)(O)O)[C@@H](O)[C@H]1O [Nuc-DP]
- Concentration in PBMCs ([1]; 2 h): 0.15 ng/10^6 cells
- Concentration in epididymis ([1]; 2 h): 33.09 ng/g tissue
- Concentration in lung ([1]; 2 h): 146.16 ng/g tissue
- Concentration in PBMCs ([1]; 6 h): 0.14 ng/10^6 cells
- Concentration in epididymis ([1]; 6 h): 49.65 ng/g tissue
- Concentration in lung ([1]; 6 h): 118.94 ng/g tissue

Compound: N#C[C@@]1(c2ccc3c(N)ncnn23)O[C@H](COP(=O)(O)O)[C@@H](O)[C@H]1O [Nuc-MP]
- Concentration in PBMCs ([1]; 2 h): 0.44 ng/10^6 cells
- Concentration in epididymis ([1]; 2 h): 6493.99 ng/g tissue
- Concentration in lung ([1]; 2 h): 3904.37 ng/g tissue
- Concentration in PBMCs ([1]; 6 h): 0.32 ng/10^6 cells
- Concentration in epididymis ([1]; 6 h): 555.72 ng/g tissue
- Concentration in lung ([1]; 6 h): 309.88 ng/g tissue

Compound: N#C[C@@]1(c2ccc3c(N)ncnn23)O[C@H](COP(=O)(O)OP(=O)(O)OP(=O)(O)O)[C@@H](O)[C@H]1O [Nuc-TP]
- Concentration in PBMCs ([1]; 2 h): 12.32 ng/10^6 cells
- Concentration in epididymis ([1]; 2 h): 486.87 ng/g tissue
- Concentration in lung ([1]; 2 h): 3168.31 ng/g tissue
- Concentration in PBMCs ([1]; 6 h): 12.82 ng/10^6 cells
- Concentration in epididymis ([1]; 6 h): 1225.27 ng/g tissue
- Concentration in lung ([1]; 6 h): 2057.66 ng/g tissue
- level of Nuc-TP in the thymus ([1]; remdesivir ip, 2 and 6 h): below the detectable line

Compound: CCC(CC)COC(=O)[C@H](C)N[P@](=O)(OC[C@H]1O[C@@](C#N)(c2ccc3c(N)ncnn23)[C@H](O)[C@@H]1O)Oc1ccccc1 [Remdesivir, reference compound]
- concentration at 2 h ([1]; 2 h, average n=5, read-out: Concentration in brain): 0.61 ng/g
- concentration at 2 h ([1]; 2 h, average n=5, read-out: Concentration in epididymis): 42.1 ng/g
- concentration at 2 h ([1]; 2 h, average n=5, read-out: Concentration in heart): 5.12 ng/g
- concentration at 2 h ([1]; 2 h, average n=5, read-out: Concentration in kidney): 25.4 ng/g
- concentration at 2 h ([1]; 2 h, average n=5, read-out: Concentration in liver): 38.4 ng/g
- concentration at 2 h ([1]; 2 h, average n=5, read-out: Concentration in lung): 5.14 ng/g
- concentration at 2 h ([1]; 2 h, average n=5, read-out: Concentration in spleen): 39.4 ng/g
- concentration at 2 h ([1]; 2 h, average n=5, read-out: Concentration in testis): 2.88 ng/g
- concentration at 2 h ([1]; 2 h, average n=5, read-out: Concentration in thymus): 29.9 ng/g
- concentration at 6 h ([1]; 6 h, average n=5, read-out: Concentration in brain): 0.78 ng/g
- concentration at 6 h ([1]; 6 h, average n=5, read-out: Concentration in epididymis): 0.6 ng/g
- concentration at 6 h ([1]; 6 h, average n=5, read-out: Concentration in heart): 28.6 ng/g
- concentration at 6 h ([1]; 6 h, average n=5, read-out: Concentration in kidney): 0.84 ng/g
- concentration at 6 h ([1]; 6 h, average n=5, read-out: Concentration in liver): 13.1 ng/g
- concentration at 6 h ([1]; 6 h, average n=5, read-out: Concentration in lung): 0.87 ng/g
- concentration at 6 h ([1]; 6 h, average n=5, read-out: Concentration in spleen): 0.32 ng/g
- concentration at 6 h ([1]; 6 h, average n=5, read-out: Concentration in thymus): 2.74 ng/g
